The values that follow come from paper PMC3867986 (ACS medicinal chemistry letters, 2013).

One data set is described as follows: Chemical stability. The note with it: long-term storage, HPLC analysis.
The target of data set [1] is BirA (biotin protein ligase) (Mycobacterium tuberculosis, UniProt I6YFP0). In kind it is binding. To be noted: direct stoichiometric titration of BirA, duplicate.
Chain of BirA (biotin protein ligase) (I6YFP0 whole entry, looked up): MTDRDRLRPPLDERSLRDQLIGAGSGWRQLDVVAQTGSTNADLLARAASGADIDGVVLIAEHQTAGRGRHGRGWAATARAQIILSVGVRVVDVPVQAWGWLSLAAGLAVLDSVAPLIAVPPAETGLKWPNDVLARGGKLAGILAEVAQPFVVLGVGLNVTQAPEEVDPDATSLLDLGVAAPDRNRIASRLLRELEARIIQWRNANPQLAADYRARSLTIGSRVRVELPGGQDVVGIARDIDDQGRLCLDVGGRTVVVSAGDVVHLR

As for `CCN(CC)CC.Nc1ncnc2c1ncn2[C@@H]1O[C@H](CCS(=O)(=O)NC(=O)CCCC[C@@H]2SC[C@@H]3NC(=O)N[C@@H]32)[C@@H](O)[C@H]1O` [Compound 10], the chemical stability result in “Chemical stability” is reported as “no degradation upon long-term storage”.

As for `CCN(CC)CC.Nc1nccc2c1ncn2[C@@H]1O[C@H](COS(=O)(=O)NC(=O)CCCC[C@@H]2SC[C@@H]3NC(=O)N[C@@H]32)[C@@H](O)[C@H]1O` [Compound 11], the ΔH in data set [1] is -21.2 kcal/mol.

For `CC(C)(C)C#Cc1nc(N)c2ncn([C@@H]3O[C@H](COS(=O)(=O)NC(=O)CCCC[C@@H]4SC[C@@H]5NC(=O)N[C@@H]54)[C@@H](O)[C@H]3O)c2n1.CCN(CC)CC` [Compound 13], the ΔH in data set [1] is -13.5 kcal/mol.
